We go through 38 compounds from patent US10981879B2, “Thioether triazolopyridine and triazolopyrimidine inhibitors of myeloperoxidase” (BRISTOL-MYERS SQUIBB COMPANY, priority 2014, dated 2021).

Each structure is given as a SMILES string. Some results are limits rather than exact numbers.

Chain of myeloperoxidase (MPO) (P05164 49-745): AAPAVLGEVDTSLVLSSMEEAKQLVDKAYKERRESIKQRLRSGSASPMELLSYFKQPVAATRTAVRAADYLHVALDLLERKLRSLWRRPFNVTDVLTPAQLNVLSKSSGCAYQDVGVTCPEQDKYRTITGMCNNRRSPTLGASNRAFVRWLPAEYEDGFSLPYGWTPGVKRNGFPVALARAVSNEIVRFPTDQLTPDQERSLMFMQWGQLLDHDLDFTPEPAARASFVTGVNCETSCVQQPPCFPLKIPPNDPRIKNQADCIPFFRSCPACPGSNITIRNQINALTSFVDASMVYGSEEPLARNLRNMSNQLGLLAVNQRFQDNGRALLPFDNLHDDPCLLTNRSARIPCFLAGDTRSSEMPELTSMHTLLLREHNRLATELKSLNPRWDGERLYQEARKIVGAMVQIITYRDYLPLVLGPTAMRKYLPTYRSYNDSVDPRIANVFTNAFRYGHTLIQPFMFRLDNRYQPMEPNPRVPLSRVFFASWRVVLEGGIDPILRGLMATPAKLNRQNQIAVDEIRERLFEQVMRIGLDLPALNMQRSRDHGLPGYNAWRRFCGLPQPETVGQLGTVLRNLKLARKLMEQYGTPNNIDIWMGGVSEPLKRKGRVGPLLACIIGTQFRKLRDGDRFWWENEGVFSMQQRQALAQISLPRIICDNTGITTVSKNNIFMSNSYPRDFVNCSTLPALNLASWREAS

The assay has as its target myeloperoxidase (MPO) (Homo sapiens (Human), UniProt P05164). As to the kind of experiment: MPO chlorination assay (APF). The following applies: MPO chlorination assay, ranges given; read-out: MPO chlorination assay IC50. The class given is biochemical. As for the experimental part:
MPO chlorination activity was measured in 100 mM KPi (pH 7.4) by utilizing the non-fluorescent reagent Aminophenyl fluorescein (APF, Invitrogen catalog #A36003). APF is cleaved by (—OCl) to yield the fluorescent compound fluorescein. Reactions were carried out in 50 μL total volume by adding a 25 μL mixture of 200 pM myeloperoxidase and 120 mM NaCl to 100 nL inhibitor in 100% DMSO in a 384 well, non-binding surface clear bottom plate (CORNING® #3655). Enzyme, inhibitor, and chloride were preincubated for ten minutes at rt.
After the ten minute preincubation, 25 μL of an APF mixture containing […], 120 mM NaCl and 10 μM H2O2 was added to the plate using the internal dispensing system of a Hammatsu FDSS 6000. Kinetic determinations were carried out immediately on the FDSS 6000 (3 minute kinetic read, 1 read every second, ex: 485 nm, em: 535 nm). IC50 values for inhibitors were calculated by taking the slope of the linear portion of the kinetic measurement (20 seconds to ˜80-120 secs). […]
[formula] where A=minimal Y value (activity level of inhibited sample), B=maximal Y value (activity level of uninhibited sample), C=Log IC50, D=Hill Slope, x=concentration of inhibitor. EPX Bromination Assay
For the compound `CN(C)Cc1ccc(F)c(CSc2cc(N)nc3[nH]nnc23)c1` [Example 99, 7-((5-((dimethylamino)methyl)-2-fluorobenzyl)thio)-3H-[1,2,3]triazolo[4,5-b]pyridin-5-amine], the 50% inhibitory concentration (IC50) lay in the range of 60 to 200 nM.
`Cn1nc(C2CC2)cc1CSc1cc(N)nc2[nH]nnc12` [Example 100, 7-(((3-cyclopropyl-1-methyl-1H-pyrazol-5-yl)methyl)thio)-3H-[1,2,3]triazolo[4,5-b]pyridin-5-amine]: the half-maximal inhibitory concentration (IC50) is 60 to 200 nM.
With `Nc1cc(SCc2cc(-c3ccccc3)on2)c2nn[nH]c2n1` [Example 101, 7-(((5-phenylisoxazol-3-yl)methyl)thio)-3H-[1,2,3] triazolo[4,5-b]pyridin-5-amine], the IC50 was in the range of 60 to 200 nM.
As to `CS(=O)(=O)c1cccc(Cl)c1CSc1cc(N)nc2[nH]nnc12` [Example 102, 7-((2-chloro-6-(methylsulfonyl)benzyl)thio)-3H-[1,2,3]triazolo[4,5-b]pyridin-5-amine], the IC50 fell in the range of 60 to 200 nM.
For the compound `Cn1nc(CSc2cc(N)nc3[nH]nnc23)cc1-c1ccccc1` [Example 103, 7-(((1-methyl-5-phenyl-1H-pyrazol-3-yl)methyl)thio)-3H-[1,2,3]triazolo[4,5-b] pyridin-5-amine], the IC50 was in the range of 60 to 200 nM.
For `Nc1cc(SCc2cccc3c2OC(F)(F)O3)c2nn[nH]c2n1` [Example 105, 7-(((2,2-difluorobenzo[d] [1,3]dioxol-4-yl)methyl)thio)-3H-[1,2,3]triazolo[4,5-b]pyridin-5-amine], the IC50 lay within 60 to 200 nM.
`CCOC(=O)C(Sc1cc(N)nc2[nH]nnc12)c1ccccc1` (centres unmarked) [Example 106, ethyl 2-((5-amino-3H-[1,2,3]triazolo[4,5-b]pyridin-7-yl)thio)-2-phenylacetate]: the IC50 is 60 to 200 nM.
For `CC(Sc1cc(N)nc2[nH]nnc12)c1cccnc1` (centres unmarked) [Example 107, 7-((1-(pyridin-3-yl)ethyl)thio)-3H-[1,2,3]triazolo[4,5-b]pyridin-5-amine], the IC50 lay in the range of 60 to 200 nM.
Turning to `N#Cc1ncccc1CSc1cc(N)nc2[nH]nnc12` [Example 108, 3-(((5-amino-3H-[1,2,3]triazolo[4,5-b]pyridin-7-yl)thio)methyl)picolinonitrile], the IC50 lay within 60 to 200 nM.
In the case of `N#Cc1ccc(OC(F)F)cc1CSc1cc(N)nc2[nH]nnc12` [Example 109], the half-maximal inhibitory concentration (IC50) is ≤ 60 nM.
Turning to `N#Cc1ccc(OC2CC2)cc1CSc1cc(N)nc2[nH]nnc12` [Example 110, 2-(((5-amino-3H-[1,2,3]triazolo[4,5-b]pyridin-7-yl)thio)methyl)-4-cyclopropoxybenzonitrile], the IC50 was in the range of 60 to 200 nM.
The result for `Cn1nc(C2CC2)c(Cl)c1CSc1cc(N)nc2[nH]nnc12` [Example 111, 7-(((4-chloro-3-cyclopropyl-1-methyl-1H-pyrazol-5-yl)methyl)thio)-3H-[1,2,3] triazolo[4,5-b]pyridin-5-amine] reads 60 to 200 nM; that for `Cn1nc(-c2ccccc2)c(Cl)c1CSc1cc(N)nc2[nH]nnc12` [Example 112, 7-(((4-chloro-1-methyl-3-phenyl-1H-pyrazol-5-yl)methyl)thio)-3H-[1,2,3] triazolo[4,5-b]pyridin-5-amine], ≤ 60 nM.
With `Nc1cc(SCc2cnn(-c3ccccc3)c2C(F)(F)F)c2nn[nH]c2n1` [Example 114, 7-(((1-phenyl-5-(trifluoromethyl)-1H-pyrazol-4-yl)methyl)thio)-3H-[1,2,3]triazolo[4,5-b] pyridin-5-amine], the IC50 was in the range of 60 to 200 nM.
Take `Nc1cc(SCc2cn(C3CCCCC3)nc2C(F)(F)F)c2nn[nH]c2n1` [Example 115, 7-(((1-cyclohexyl-3-(trifluoromethyl)-1H-pyrazol-4-yl)methyl)thio)-3H-[1,2,3]triazolo[4,5-b] pyridin-5-amine]: the IC50 was in the range of 60 to 200 nM.
The result for `N#Cc1cccc(Cl)c1CSc1cc(N)nc2[nH]nnc12` [Example 117, 2-(((5-amino-3H-[1,2,3]triazolo[4,5-b]pyridin-7-yl)thio)methyl)-3-chlorobenzonitrile] reads ≤ 60 nM; that for `Nc1cc(SCc2cc(Cl)cc(S(N)(=O)=O)c2Cl)c2nn[nH]c2n1` [Example 118, 3-(((5-amino-3H-[1,2,3]triazolo[4,5-b]pyridin-7-yl)thio)methyl)-2,5-dichlorobenzenesulfonamide], ≤ 60 nM; that for `Nc1cc(SCc2ccc(S(N)(=O)=O)cc2Cl)c2nn[nH]c2n1` [Example 119, 4-(((5-amino-3H-[1,2,3]triazolo[4,5-b]pyridin-7-yl)thio)methyl)-3-chlorobenzenesulfonamide], 60 to 200 nM.
In the case of `NC(=O)c1ccc(CSc2cc(N)nc3[nH]nnc23)c(F)c1` [Example 120, 4-(((5-amino-3H-[1,2,3]triazolo[4,5-b]pyridin-7-yl)thio)methyl)-3-fluorobenzamide], the half-inhibitory concentration (IC50) was in the range of 200 to 1000 nM.
With `N#Cc1ccc(F)c(CSc2cc(N)nc3[nH]nnc23)c1` [Example 123, 3-(((5-amino-3H-[1,2,3]triazolo[4,5-b]pyridin-7-yl)thio)methyl)-4-fluorobenzonitrile] the figure was 60 to 200 nM; with `N#Cc1ccc(CSc2cc(N)nc3[nH]nnc23)c(Cl)c1` [Example 124, 4-(((5-amino-3H-[1,2,3]triazolo[4,5-b]pyridin-7-yl)thio)methyl)-3-chlorobenzonitrile], 200 to 1000 nM.
`Nc1cc(SCc2cccc3cccnc23)c2nn[nH]c2n1` [Example 125, 7-((quinolin-8-ylmethyl)thio)-3H-[1,2,3] triazolo[4,5-b]pyridin-5-amine]: the half-maximal inhibitory concentration (IC50) was ≤ 60 nM.
With `Nc1cc(SC(C(=O)NCc2ccccc2)c2ccccc2)c2nn[nH]c2n1` (centres unmarked) [Example 127, 2-((5-Amino-3H-[1,2,3]triazolo[4,5-b]pyridin-7-yl)thio)-N-benzyl-2-phenylacetamide], the IC50 fell in the range of 200 to 1000 nM.
As for `Nc1cc(SC(CNCc2ccccc2)c2ccccc2)c2nn[nH]c2n1` (centres unmarked) [Example 128, 7-((2-(Benzylamino)-1-phenylethyl)thio)-3H-[1,2,3]triazolo[4,5-b]pyridin-5-amine], the IC50 was in the range of 60 to 200 nM.
Take `N#Cc1cccc(-n2cccn2)c1CSc1cc(N)nc2[nH]nnc12` [Example 129, 2-(((5-Amino-3H-[1,2,3]triazolo[4,5-b]pyridin-7-yl)thio)methyl)-3-(1H-pyrazol-1-yl)benzonitrile]: the IC50 was 200 to 1000 nM.
In the case of `N#Cc1ccc(-c2ccncc2)c(CSc2cc(N)nc3[nH]nnc23)c1` [Example 130, 3-(((5-Amino-3H-[1,2,3]triazolo[4,5-b]pyridin-7-yl)thio)methyl)-4-(pyridin-4-yl)benzonitrile], the 50% inhibitory concentration (IC50) is ≤ 60 nM.
With `N#Cc1cccc(-n2ccnc2)c1CSc1cc(N)nc2[nH]nnc12` [Example 131, 2-(((5-amino-3H-[1,2,3]triazolo[4,5-b]pyridin-7-yl)thio)methyl)-3-(1H-imidazol-1-yl)benzonitrile] the figure was 200 to 1000 nM; with `N#Cc1ccc(-n2cccn2)c(CSc2cc(N)nc3[nH]nnc23)c1` [Example 132, 3-(((5-amino-3H-[1,2,3]triazolo[4,5-b]pyridin-7-yl)thio)methyl)-4-(1H-pyrazol-1-yl) benzonitrile], 60 to 200 nM.
`N#Cc1ccc(CSc2cc(N)nc3[nH]nnc23)c(C2CC2)c1` [Example 133, 4-(((5-amino-3H-[1,2,3]triazolo[4,5-b]pyridin-7-yl)thio)methyl)-3-cyclopropylbenzonitrile]: the 50% inhibitory concentration (IC50) is ≤ 60 nM.
For the compound `Nc1cc(SCc2cn(-c3ccccc3)nc2C2CC2)c2nn[nH]c2n1` [Example 134, 7-(((3-Cyclopropyl-1-phenyl-1H-pyrazol-4-yl)methyl)thio)-3H-[1,2,3]triazolo[4,5-b]pyridin-5-amine], the IC50 was ≤ 60 nM.
The result for `Nc1cc(SCc2cn(-c3ccccn3)nc2C(F)(F)F)c2nn[nH]c2n1` [Example 135, 7-(((1-(pyridin-2-y1)-3-(trifluoromethyl)-1H-pyrazol-4-yl)methyl)thio)-3H-[1,2,3] triazolo[4,5-b]pyridin-5-amine] reads ≤ 60 nM; that for `Nc1cc(SCc2cn(-c3cccnc3)nc2C(F)(F)F)c2nn[nH]c2n1` [Example 136], ≤ 60 nM.
Take `Nc1cc(SCc2cn(-c3ccncc3)nc2C(F)(F)F)c2nn[nH]c2n1` [Example 137]: the IC50 was ≤ 60 nM.
Turning to `Nc1cc(SCc2cn(-c3ccccc3)nc2C(F)F)c2nn[nH]c2n1` [Example 138, 7-(((3-(difluoromethyl)-1-phenyl-1H-pyrazol-4-yl)methyl)thio)-3H-[1,2,3]triazolo[4,5-b] pyridin-5-amine], the IC50 was ≤ 60 nM.
The result for `CN(C)c1cccc(-n2cc(CSc3cc(N)nc4[nH]nnc34)c(C(F)(F)F)n2)n1` [Example 140, 7-(((1-(6-(dimethylamino)pyridin-2-yl)-3-(trifluoromethyl)-1H-pyrazol-4-yl)methyl)thio)-3H-[1,2,3]triazolo [4,5-b]pyridin-5-amine] reads 200 to 1000 nM.
For the compound `CN(C)c1cc(-n2cc(CSc3cc(N)nc4[nH]nnc34)c(C(F)(F)F)n2)ccn1` [Example 141, 7-(((1-(2-(dimethylamino)pyridin-4-yl)-3-(trifluoromethyl)-1H-pyrazol-4-yl)methyl)thio)-3H-[1,2,3]triazolo [4,5-b]pyridin-5-amine], the IC50 was ≤ 60 nM.
The result for `Nc1cc(SCc2cn(-c3ccncc3)nc2C(F)F)c2nn[nH]c2n1` [Example 142] reads ≤ 60 nM; that for `Nc1cc(SCc2cn(-c3ccnnc3)nc2C(F)F)c2nn[nH]c2n1` [Example 143], 200 to 1000 nM.

As a reminder, the IC50 is the concentration needed to halve the response being measured.
